Results taken from US9113629B2, “4-amino-6-(4-substituted-phenyl)-picolinates and 6-amino-2-(4-substituted-phenyl)-pyrimidine-4-carboxylates and their use as herbicides” (DOW AGROSCIENCES LLC, priority 2013, dated 2015).
Read-outs that look alike come from different tables or passages of the source.

Assays:
[1] = test system: Key Broadleaf Weed and Crop Species; test: Post-emergent Test II herbicidal activity (Table 5); type: in vivo; details: post-emergence, 336 h, 14 days after application; for pest or weed control at 70 g/ha: application rate 70 g ai/ha; for pest or weed control at 140 g/ha: application rate 140 g ai/ha
In short: (§1)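 Test species were raised 7–21 d under greenhouse conditions until reaching the first or second true leaf, sprayed with formulated compound at 187 L/ha, and kept subirrigated to avoid wash-off. Fourteen days later, damage was rated visually on a 0–100% scale against untreated plants.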

[2] = test system: Key Grass and Sedge Weeds as well as Grass Crops; test: Post-emergent Test II herbicidal activity (Table 6); type: in vivo; details: post-emergence, 336 h; for pest or weed control at 70 g/ha: 70 g ai/ha; for pest or weed control at 140 g/ha: 140 g ai/ha
In short: as §1

[3] = ABUTH: velvetleaf (Abutilon theophrasti), read-out: Visual Growth Reduction (%) 14 Days After Application, ABUTH
[4] = AMARE: redroot pigweed (Amaranthus retroflexus), read-out: Visual Growth Reduction (%) 14 Days After Application, AMARE
[5] = BRSNN: oilseed-rape, canola (Brassica napus), read-out: Visual Growth Reduction (%) 14 Days After Application, BRSNN
[6] = CHEAL: lambsquarters (Chenopodium album), read-out: Visual Growth Reduction (%) 14 Days After Application, CHEAL
[7] = EPHHL: wild poinsettia (Euphorbia heterophylla), read-out: Visual Growth Reduction (%) 14 Days After Application, EPHHL
[8] = HELAN: sunflower (Helianthus annuus), read-out: Visual Growth Reduction (%) 14 Days After Application, HELAN
[9] = VIOTR: wild pansy (Viola tricolor), read-out: Visual Growth Reduction (%) 14 Days After Application, VIOTR
[10] = CYPES: yellow nutsedge (Cyperus esculentus), read-out: Visual Growth Reduction (%) 14 Days After Application, CYPES
[11] = DIGSA: crabgrass (Digitaria sanguinalis), read-out: Visual Growth Reduction (%) 14 Days After Application, DIGSA
[12] = ECHCG: barnyardgrass (Echinochloa crus-galli), read-out: Visual Growth Reduction (%) 14 Days After Application, ECHCG
[13] = ORYSA: rice (Oryza sativa), crop, read-out: Visual Growth Reduction (%) 14 Days After Application, ORYSA
[14] = SETFA: giant foxtail (Setaria faberi), read-out: Visual Growth Reduction (%) 14 Days After Application, SETFA
[15] = SORVU: grain sorghum (Sorghum vulgare), read-out: Visual Growth Reduction (%) 14 Days After Application, SORVU
[16] = TRZSS (wheat, Triticum aestivum), crop, read-out: Visual Growth Reduction (%) 14 Days After Application, TRZSS
[17] = ZEAMX: maize, corn (Zea mays), crop, read-out: Visual Growth Reduction (%) 14 Days After Application, ZEAMX

Structure (SMILES) | melting point | pest or weed control at 70 g/ha [1, 3] | pest or weed control at 140 g/ha [1, 3] | pest or weed control at 70 g/ha [1, 4] | pest or weed control at 140 g/ha [1, 4] | pest or weed control at 70 g/ha [1, 5] | pest or weed control at 140 g/ha [1, 5] | pest or weed control at 70 g/ha [1, 6] | pest or weed control at 140 g/ha [1, 6] | pest or weed control at 70 g/ha [1, 7] | pest or weed control at 140 g/ha [1, 7] | pest or weed control at 70 g/ha [1, 8] | pest or weed control at 140 g/ha [1, 8] | pest or weed control at 70 g/ha [1, 9] | pest or weed control at 140 g/ha [1, 9] | pest or weed control at 140 g/ha [2, 10] | pest or weed control at 70 g/ha [2, 11] | pest or weed control at 140 g/ha [2, 11] | pest or weed control at 70 g/ha [2, 12] | pest or weed control at 140 g/ha [2, 12] | also measured
Nc1cc(-c2ccc(Br)c(F)c2F)nc(C(=O)O)c1Cl [Compound 91] | 173 to 175 °C | 85 to 94% | 95 to 100% | 95 to 100% | 95 to 100% | 75 to 84% | 85 to 94% | 85 to 94% | 85 to 94% | 95 to 100% | 95 to 100% | 85 to 94% | 85 to 94% | 95 to 100% | 95 to 100% | 95 to 100% | 85 to 94% | 85 to 94% | 95 to 100% | 95 to 100% | pest or weed control at 70 g/ha [2, 10]: 95 to 100%; pest or weed control at 70 g/ha [2, 13]: 0 to 29%; pest or weed control at 140 g/ha [2, 13]: 0 to 29%; pest or weed control at 70 g/ha [2, 14]: 75 to 84%; pest or weed control at 140 g/ha [2, 14]: 85 to 94%; pest or weed control at 70 g/ha [2, 15]: 75 to 84%; pest or weed control at 140 g/ha [2, 15]: 75 to 84%; pest or weed control at 70 g/ha [2, 16]: 45 to 59%; pest or weed control at 140 g/ha [2, 16]: 45 to 59%; pest or weed control at 70 g/ha [2, 17]: 85 to 94%; pest or weed control at 140 g/ha [2, 17]: 85 to 94%
COC(=O)c1nc(-c2ccc(I)c(F)c2F)c(F)c(N)c1Cl [Compound 99] | 168 to 170 °C | 95 to 100% | 95 to 100% | 95 to 100% | 95 to 100% | 95 to 100% | 95 to 100% | 95 to 100% | 95 to 100% | 95 to 100% | 95 to 100% | 95 to 100% | 95 to 100% | 95 to 100% | 95 to 100% | 95 to 100% | 75 to 84% | 85 to 94% | 95 to 100% | 95 to 100% | pest or weed control at 70 g/ha [2, 13]: 0 to 29%; pest or weed control at 140 g/ha [2, 13]: 0 to 29%; pest or weed control at 70 g/ha [2, 14]: 95 to 100%; pest or weed control at 140 g/ha [2, 14]: 95 to 100%; pest or weed control at 70 g/ha [2, 15]: 95 to 100%; pest or weed control at 140 g/ha [2, 15]: 95 to 100%; pest or weed control at 70 g/ha [2, 16]: 45 to 59%; pest or weed control at 140 g/ha [2, 16]: 60 to 74%; pest or weed control at 70 g/ha [2, 17]: 95 to 100%; pest or weed control at 140 g/ha [2, 17]: 95 to 100%
COC(=O)c1nc(-c2ccc(OC(F)F)cc2F)c(F)c(N)c1Cl [Compound 104] | 127 to 129 °C | 45 to 59% | 45 to 59% | 0 to 29% | 0 to 29% | 0 to 29% | 0 to 29% | 0 to 29% | 0 to 29% | 75 to 84% | 85 to 94% | 75 to 84% | 75 to 84% | 0 to 29% | 0 to 29% | 45 to 59% | 0 to 29% | 0 to 29% | 0 to 29% | 0 to 29% | pest or weed control at 70 g/ha [2, 10]: 0 to 29%; pest or weed control at 70 g/ha [2, 13]: 0 to 29%; pest or weed control at 140 g/ha [2, 13]: 0 to 29%; pest or weed control at 70 g/ha [2, 14]: 0 to 29%; pest or weed control at 140 g/ha [2, 14]: 0 to 29%; pest or weed control at 70 g/ha [2, 15]: 0 to 29%; pest or weed control at 140 g/ha [2, 15]: 45 to 59%; pest or weed control at 70 g/ha [2, 16]: 0 to 29%; pest or weed control at 140 g/ha [2, 16]: 0 to 29%; pest or weed control at 70 g/ha [2, 17]: 45 to 59%; pest or weed control at 140 g/ha [2, 17]: 95 to 100%

Second part, led by results:

melting point | Structure (SMILES) | pest or weed control at 70 g/ha [1, 3] | pest or weed control at 140 g/ha [1, 3] | pest or weed control at 70 g/ha [1, 4] | pest or weed control at 140 g/ha [1, 4] | pest or weed control at 70 g/ha [1, 5] | pest or weed control at 140 g/ha [1, 5] | pest or weed control at 70 g/ha [1, 6] | pest or weed control at 140 g/ha [1, 6] | pest or weed control at 70 g/ha [1, 7] | pest or weed control at 140 g/ha [1, 7] | pest or weed control at 70 g/ha [1, 8] | pest or weed control at 140 g/ha [1, 8] | pest or weed control at 70 g/ha [1, 9] | pest or weed control at 140 g/ha [1, 9] | pest or weed control at 140 g/ha [2, 10] | pest or weed control at 70 g/ha [2, 11] | pest or weed control at 140 g/ha [2, 11] | pest or weed control at 70 g/ha [2, 12] | pest or weed control at 140 g/ha [2, 12] | also measured
165 to 175 °C (dec.) | C#Cc1ccc(-c2nc(C(=O)O)c(Cl)c(N)c2F)c(F)c1 [Compound 108] | 45 to 59% | 75 to 84% | 75 to 84% | 95 to 100% | 85 to 94% | 85 to 94% | 60 to 74% | 75 to 84% | 85 to 94% | 95 to 100% | 85 to 94% | 95 to 100% | 0 to 29% | 45 to 59% | 30 to 44% | 60 to 74% | 60 to 74% | 45 to 59% | 75 to 84% | pest or weed control at 70 g/ha [2, 10]: 45 to 59%; pest or weed control at 70 g/ha [2, 13]: 0 to 29%; pest or weed control at 140 g/ha [2, 13]: 0 to 29%; pest or weed control at 70 g/ha [2, 14]: 45 to 59%; pest or weed control at 140 g/ha [2, 14]: 30 to 44%; pest or weed control at 70 g/ha [2, 15]: 0 to 29%; pest or weed control at 140 g/ha [2, 15]: 30 to 44%; pest or weed control at 70 g/ha [2, 16]: 30 to 44%; pest or weed control at 140 g/ha [2, 16]: 30 to 44%; pest or weed control at 70 g/ha [2, 17]: 0 to 29%; pest or weed control at 140 g/ha [2, 17]: 45 to 59%
186 to 188 °C | C#Cc1ccc(-c2nc(C(=O)OC)c(Cl)c(N)c2F)c(F)c1 [Compound 121] | 85 to 94% | 85 to 94% | 0 to 29% | 0 to 29% | 85 to 94% | 95 to 100% | 75 to 84% | 95 to 100% | 45 to 59% | 95 to 100% | 85 to 94% | 95 to 100% | 0 to 29% | 0 to 29% | 45 to 59% | 0 to 29% | 0 to 29% | 0 to 29% | 0 to 29% | pest or weed control at 70 g/ha [2, 10]: 45 to 59%; pest or weed control at 70 g/ha [2, 13]: 0 to 29%; pest or weed control at 140 g/ha [2, 13]: 0 to 29%; pest or weed control at 70 g/ha [2, 14]: 0 to 29%; pest or weed control at 140 g/ha [2, 14]: 0 to 29%; pest or weed control at 70 g/ha [2, 15]: 45 to 59%; pest or weed control at 140 g/ha [2, 15]: 60 to 74%; pest or weed control at 70 g/ha [2, 16]: 0 to 29%; pest or weed control at 140 g/ha [2, 16]: 0 to 29%; pest or weed control at 70 g/ha [2, 17]: 95 to 100%; pest or weed control at 140 g/ha [2, 17]: 95 to 100%
